Source: patent publication US10189854B2, “Substituted pyrimidine compounds” (Grünenthal GmbH, priority 2014, dated 2019)
Counter-ions that a name gives are not always drawn.

Each compound was assayed against human PDE4B1 (Homo sapiens (Human), UniProt Q07343) (assay: TR-FRET assay using the LANCE Ultra cAMP kit to determine the activity of hPDE4B1). Details: IC50 inhibition of PDE4B, mean.
Type: biochemical
Description: TR-FRET Assay Using the LANCE® Ultra cAMP Kit to Determine the Activity of hPDE4B1
The effects of the compounds on the activity of the human PDE4B1 was quantified by measuring the production of 5′AMP from cAMP using a human recombinant enzyme expressed in Sf9 cells and the LANCE® Ultra cAMP kit, a TR-FRET detection method from PerkinElmer. The human PDE4B1 enzyme was purchased from SignalChem Lifesciences (Catalog# P92-31BG, Lot# H296-2).
The test compound, reference compound or water (control) was mixed with the enzyme (0.96 U) in a reaction buffer containing 50 mM Tris-HCl, 50 mM MgCl2 and 5 mM DTT (pH 8.5). Thereafter, the reaction was initiated by addition of 500 nM cAMP (substrate) and the mixture was incubated for 30 minutes at room temperature. For control basal measurements, the enzyme was omitted from the reaction mixture. After 30 minutes, the reaction was stopped and diluted by a factor of 100 with the reaction buffer supplemented with 500 μM IBMX. The fluorescence donor (europium chelate-labeled cAMP) and the fluorescence acceptor (anti-cAMP antibody labeled with the ULight™ dye) were then added together with 500 μM IBMX to a 10 μl aliquot. After 60 minutes, the fluorescence transfer corresponding to the amount of residual cAMP was measured at λex=337 nm, λem=620 nm and λem=665 nm using a microplate reader (PHERAstar, BMG). The enzyme activity was determined by dividing the signal measured at 665 nm by that measured at 620 nm (ratio) multiplied by 10000. The results were expressed as percent inhibition of the control enzyme activity. IC50 values (IC50=concentration causing a half-maximal inhibition of control specific activity) were derived from dose response measurements with ten different concentrations (n=3; N=1-3).
Several compounds according to the invention are tested with above mentioned assay.

human PDE4B1, sequence (Q07343 whole entry): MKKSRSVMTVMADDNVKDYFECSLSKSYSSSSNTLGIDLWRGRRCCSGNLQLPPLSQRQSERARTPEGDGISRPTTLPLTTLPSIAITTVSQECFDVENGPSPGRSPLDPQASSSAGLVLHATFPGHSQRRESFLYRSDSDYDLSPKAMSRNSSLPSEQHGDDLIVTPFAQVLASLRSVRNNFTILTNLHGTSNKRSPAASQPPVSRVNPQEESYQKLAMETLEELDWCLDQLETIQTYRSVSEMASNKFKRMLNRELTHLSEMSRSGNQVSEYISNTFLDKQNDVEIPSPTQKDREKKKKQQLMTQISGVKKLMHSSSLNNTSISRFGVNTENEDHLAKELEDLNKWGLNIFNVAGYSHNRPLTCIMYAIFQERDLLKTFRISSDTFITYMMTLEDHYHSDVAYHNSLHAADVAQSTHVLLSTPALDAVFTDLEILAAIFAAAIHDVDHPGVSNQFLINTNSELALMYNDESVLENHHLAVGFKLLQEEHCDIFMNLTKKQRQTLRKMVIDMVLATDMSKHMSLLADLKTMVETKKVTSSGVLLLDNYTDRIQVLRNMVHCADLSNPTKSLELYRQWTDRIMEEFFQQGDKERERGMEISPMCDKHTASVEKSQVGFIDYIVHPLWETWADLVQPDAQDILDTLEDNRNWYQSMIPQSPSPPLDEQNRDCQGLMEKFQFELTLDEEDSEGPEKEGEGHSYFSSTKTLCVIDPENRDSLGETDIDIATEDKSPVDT

IC50, < 0.1 µM:
Nc1ccnc(-c2cnc(N3CC4(CC4)c4ccc(C(=O)N5CCNC(=O)C5)cc43)nc2)c1 [Compound 258, 4-[1-[5-(4-Amino-pyridin-2-yl)-pyrimidin-2-yl]-spiro[1,2-dihydro-indole-3,1′-cyclopropane]-6-carbonyl]-piperazin-2-one]
Cc1cc(N)cc(-c2cnc(N3CC4(CC4)c4ccc(C(=O)N5CCOCC5)cc43)nc2)n1 [Compound 259, [1-[5-(4-Amino-6-methyl-pyridin-2-yl)-pyrimidin-2-yl]-spiro[1,2-dihydro-indole-3,1′-cyclopropane]-6-yl]-morpholin-4-yl-methanone]
Cc1cc(C)nc(-c2cnc(N3CC4(CC4)c4ccc(C(=O)N(C)CCO)cc43)nc2)c1 [Compound 260, 1-[5-(4,6-Dimethyl-pyridin-2-yl)-pyrimidin-2-yl]-N-(2-hydroxy-ethyl)-N-methyl-spiro[1,2-dihydro-indole-3,1′-cyclopropane]-6-carboxylic acid amide]
Cc1cc(N)cc(-c2cnc(N3CC4(CC4)c4ccc(C(=O)N(C)CCO)cc43)nc2)n1 [Compound 261, 1-[5-(4-Amino-6-methyl-pyridin-2-yl)-pyrimidin-2-yl]-N-(2-hydroxy-ethyl)-N-methyl-spiro[1,2-dihydro-indole-3,1′-cyclopropane]-6-carboxylic acid amide]
CN(CCO)C(=O)c1ccc2c(c1)N(c1ncc(-c3cccnn3)cn1)CC21CC1 [Compound 262, N-(2-Hydorxy-ethyl)-N-methyl-1-(5-pyridazin-3-yl-pyrimidin-2-yl)-spiro[1,2-dihydro-indole-3,1′-cyclopropane]-6-carboxylic acid amide]
Nc1ccnc(-c2cnc(N3CC4(CC4)c4ccc(C(=O)N5CC6CC5CN6)cc43)nc2)c1 (stereo not drawn) [Compound 263, [1-[5-(4-Amino-pyridin-2-yl)-pyrimidin-2-yl]-spiro[1,2-dihydro-indole-3,1′-cyclopropane]-6-yl]-(2,5-diazabicyclo[2.2.1]heptan-2-yl)-methanone dihydrochloride]
CN(CCO)C(=O)c1ccc2c(c1)N(c1ncc(-c3cccc(O)c3)cn1)CC21CC1 [Compound 264, N-(2-Hydroxy-ethyl)-1-[5-(3-hydroxyphenyl)-pyrimidin-2-yl]-N-methyl-spiro[1,2-dihydro-indole-3,1′-cyclopropane]-6-carboxylic acid amide]
O=C1CN(C(=O)c2ccc3c(c2)N(c2ncc(-c4cc(O)ccn4)cn2)CC32CC2)CCN1 [Compound 265, 4-[1-[5-(4-Hydroxy-pyridin-2-yl)-pyrimidin-2-yl]-spiro[1,2-dihydro-indole-3,1′-cyclopropane]-6-carbonyl]-piperazin-2-one]
CCc1cccc(-c2cnc(N3CC4(CC4)c4ccc(C(=O)N(C)CCO)cc43)nc2)c1 [Compound 266, 1-[5-(3-Ethyl-phenyl)-pyrimidin-2-yl]-N-(2-hydroxy-ethyl)-N-methyl-spiro[1,2-dihydro-indole-3,1′-cyclopropane]-6-carboxylic acid amide]
CN(CCO)C(=O)c1ccc2c(c1)N(c1ncc(-c3cccc(C4CC4)c3)cn1)CC21CC1 [Compound 267, 1-[5-(3-Cyclopropyl-phenyl)-pyrimidin-2-yl]-N-(2-hydroxy-ethyl)-N-methyl-spiro[1,2-dihydro-indole-3,1′-cyclopropane]-6-carboxylic acid amide]
CCc1cccc(-c2cnc(N3CC4(CC4)c4ccc(C(=O)N(C)CCO)cc43)nc2)n1 [Compound 268, 1-[5-(6-Ethyl-pyridin-2-yl)-pyrimidin-2-yl]-N-(2-hydroxy-ethyl)-N-methyl-spiro[1,2-dihydro-indole-3,1′-cyclopropane]-6-carboxylic acid amide]
CN(CCO)C(=O)c1ccc2c(c1)N(c1ncc(-c3cccc(C4CC4)n3)cn1)CC21CC1 [Compound 269, 1-[5-(6-Cyclopropyl-pyridin-2-yl)-pyrimidin-2-yl]-N-(2-hydroxy-ethyl)-N-methyl-spiro[1,2-dihydro-indole-3,1′-cyclopropane]-6-carboxylic acid amide]
CCc1ccnc(-c2cnc(N3CC4(CC4)c4ccc(C(=O)N(C)C)cc43)nc2)c1 [Compound 270, 1-[5-(4-Ethyl-pyridin-2-yl)-pyrimidin-2-yl]-N,N-dimethyl-spiro[1,2-dihydro-indole-3,1′-cyclopropane]-6-carboxylic acid amide]
CN(C)C(=O)c1ccc2c(c1)N(c1ncc(-c3cc(N(C)C)ccn3)cn1)CC21CC1 [Compound 271, 1-[5-(4-Dimethylamino-pyridin-2-yl)-pyrimidin-2-yl]-N,N-dimethyl-spiro[1,2-dihydro-indole-3,1′-cyclopropane]-6-carboxylic acid amide]
CN(CCO)C(=O)c1ccc2c(c1)N(c1ncc(-c3cc(N(C)C)ccn3)cn1)CC21CC1 [Compound 272, 1-[5-(4-Dimethylamino-pyridin-2-yl)-pyrimidin-2-yl]-N-(2-hydroxy-ethyl)-N-methyl-spiro[1,2-dihydro-indole-3,1′-cyclopropane]-6-carboxylic acid amide]
CN(CCO)C(=O)c1ccc2c(c1)N(c1ncc(-c3cccc(Cl)c3)cn1)CC21CC1 [Compound 273, 1-[5-(3-Chlorophenyl)-pyrimidin-2-yl]-N-(2-hydroxy-ethyl)-N-methyl-spiro[1,2-dihydro-indole-3,1′-cyclopropane]-6-carboxylic acid amide]
O=C(c1ccc2c(c1)N(c1ncc(-c3cccnn3)cn1)CC21CC1)N1CC2CC1CN2 (stereo not drawn) [Compound 274, (2,5-Diazabicyclo[2.2.1]heptan-2-yl)-[1-(5-pyridazin-3-yl-pyrimidin-2-yl)-spiro[1,2-dihydro-indole-3,1′-cyclopropane]-6-yl]-methanone hydrochloride]
CCc1ccnc(-c2cnc(N3CC4(CC4)c4ccc(C(=O)N5CCCC5)cc43)nc2)c1 [Compound 275, [1-[5-(4-Ethyl-pyridin-2-yl)-pyrimidin-2-yl]-spiro[1,2-dihydro-indole-3,1′-cyclopropane]-6-yl]-pyrrolidin-1-yl-methanone]
CN(C)c1ccnc(-c2cnc(N3CC4(CC4)c4ccc(C(=O)N5CCCC5)cc43)nc2)c1 [Compound 276, [1-[5-(4-Dimethylamino-pyridin-2-yl)-pyrimidin-2-yl]-spiro[1,2-dihydro-indole-3,1′-cyclopropane]-6-yl]-pyrrolidin-1-yl-methanone]
CN(CCO)C(=O)c1ccc2c(c1)N(c1ncc(-c3cccc(S(C)(=O)=O)c3)cn1)CC21CC1 [Compound 277, N-(2-Hydroxy-ethyl)-N-methyl-1-[5-(3-methylsulfonyl-phenyl)-pyrimidin-2-yl]-spiro[1,2-dihydro-indole-3,1′-cyclopropane]-6-carboxylic acid amide]
O=C(c1ccc2c(c1)N(c1ncc(-c3ccccc3F)cn1)CC21CC1)N(CCO)C1CC1 [Compound 278, N-Cyclopropyl-1-[5-(2-fluorophenyl)-pyrimidin-2-yl]-N-(2-hydroxy-ethyl]-spiro[1,2-dihydro-indole-3,1′-cyclopropane]-6-carboxylic acid amide]
